Data on ten compounds can be found in patent publication US10961242B2, “Compounds as autotaxin inhibitors and pharmaceutical compositions comprising the same” (LegoChem Biosciences, Inc., priority 2018, dated 2021).

The structures appear in SMILES notation. Where two headings read alike, the source gives them in different places.

One assay addresses human ENPP2 (Homo sapiens (Human), UniProt Q13822). Nature of the assay: Inhibitory activity on human ENPP2 (FS-3 assay). It counts as biochemical. Particulars: read-out: IC50. On the procedure:
Two-fold dilution of each test compound solution (10 μM, 100% dimethyl sulfoxide) is carried out on 96-well V bottom plate (Costar 3363). After ten-fold dilution of each the test compound solution (100% dimethyl sulfoxide) with deionized distilled water, 10 μL of the diluted each mpound solution (10% dimethyl sulfoxide) was aliquoted to a black flat bottom 96-well plate (Costar 3915).

Assay [1] concerns LPA production in blood serum caused by autotoxin. Nature of the assay: Inhibitory activity on LPA production in mouse blood serum. Format: biochemical. Conditions: mouse blood serum (m), 18:1 LPC, 3 hours at 37° C. On the procedure: After 100-fold dilution of each test compound solution (5 μL) (10 mM, 100%, dimethyl sulfoxide) with 495 μL of methanol, 3 μL of the diluted methanol solution (1% dimethyl sulfoxide) was mixed with 57 μL of human or mouse blood serum solution in a 1.5 mL tube. […] Subsequently, a solution prepared by diluting 10 mg/mL 18:1 LPC solution (50% ethanol) with blood serum to have concentration of 375 μg/mL was aliquoted in an amount of 2 μL to each tube so as to have 50 μL. Each tube was kept for 3 hours in a water bath at 37° C. to allow a reaction. To the tube obtained after the reaction, 100 μL of 0.5 μM 17:0 LPA solution (chloroform/methanol/water=65/35/8) was aliquoted and mixed therein. Centrifuge was carried out for 10 minutes using a centrifuge at conditions of 14,000 rpm and 4° C. 100 μL of 50% methanol solution is aliquoted first to a 96-well polypropylene plate (Agilent Technology 5042-1385), and the supernatant (50 μL) in a tube after the centrifuge was carefully transferred to the plate followed by mixing. After covering it with Well cap (Thermo 276011), analysis was carried out by LC-MS/MS (Agilent 1260).
In the following Table 3, the mouse blood serum was described as (m) and human blood serum was described as (h).

Setting [2] is: human ENPP2, FS-3 substrate, 30 min at 37° C.

Take `O=C(CN1CCC(c2cnc(NC3Cc4ccccc4C3)nc2)CC1)N1CCc2[nH]nnc2C1` [Compound 22, 2-(4-{2-[(2,3-dihydro-1H-inden-2-yl)amino]pyrimidin-5-yl}piperidin-1-yl)-1-{1H,4H,5H,6H,7H-[1,2,3]triazolo[4,5-c]pyridin-5-yl}ethan-1-one]: the values for the IC50 (at human ENPP2 (setting [2]); in assay [1]) were 2.9 nM and 57 nM, respectively.
Take `O=C(Cn1cc(-c2cnc(NC3Cc4ccccc4C3)nc2)c(CN2CCNCC2)n1)N1CCc2[nH]nnc2C1` [Compound 89, 2-(4-{2-[(2,3-dihydro-1H-inden-2-yl)amino]pyrimidin-5-yl}-3-(piperazin-1-ylmethyl)-1H-pyrazol-1-yl)-1-{1H,4H,5H,6H,7H-[1,2,3]triazolo[4,5-c]pyridin-5-yl}ethan-1-one]: the IC50 was found to be 4.2 nM on human ENPP2 (setting [2]) and 21 nM in assay [1].
In the case of `O=C(CN1CCN(c2cnc(NC3Cc4ccccc4C3)nc2)CC1)N1CCc2[nH]nnc2C1` [Compound 20, 2-(4-{2-[(2,3-dihydro-1H-inden-2-yl)amino]pyrimidin-5-yl}piperazin-1-yl)-1-{1H,4H,5H,6H,7H-[1,2,3]triazolo[4,5-c]pyridin-5-yl}ethan-1-one], the IC50 is 2.6 nM at human ENPP2 (setting [2]) and 29 nM in assay [1].
Regarding `O=C(Cc1nnc(-c2cnc(NCc3cccc(OC(F)(F)F)c3)nc2)o1)N1CCc2[nH]nnc2C1` [Compound 34, 1-{1H,4H,5H,6H,7H-[1,2,3]triazolo[4,5-c]pyridin-5-yl}-2-{5-[2-({[3-(trifluoromethoxy)phenyl]methyl}amino)pyrimidin-5-yl]-1,3,4-oxadiazol-2-yl}ethan-1-one], the 50% inhibitory concentration (IC50) is 2 nM at human ENPP2 (setting [2]) and 52 nM in assay [1].
`O=C(NCCC(=O)N1CCc2[nH]nnc2C1)c1cnc(NCc2cccc(OC(F)(F)F)c2)nc1` [Compound 2, N-(3-oxo-3-{1H,4H,5H,6H,7H-[1,2,3]triazolo[4,5-c]pyridin-5-yl}propyl)-2-({[3-(trifluoromethoxy)phenyl]methyl}amino)pyrimidine-5-carboxamide]: the values for the IC50 (at human ENPP2 (setting [2]); in assay [1]) were 2.1 nM and 23 nM, respectively.
For the compound `O=C(CCN1CCc2[nH]nnc2C1)N1CCC(c2cnc(NC3Cc4ccccc4C3)nc2)CC1` [Compound 14, 1-(4-{2-[(2,3-dihydro-1H-inden-2-yl)amino]pyrimidin-5-yl}piperidin-1-yl)-3-{1H,4H,5H,6H,7H-[1,2,3]triazolo[4,5-c]pyridin-5-yl}propan-1-one], the IC50 on human ENPP2 (setting [2]) was 2.4 nM; in assay [1], 8 nM.
`O=C(NC[C@H]1CN(c2ccc3[nH]c(=O)oc3c2)C(=O)O1)c1cnc(NCc2cccc(OC(F)(F)F)c2)nc1` [Compound 10, N-{[(5S)-2-oxo-3-(2-oxo-2,3-dihydro-1,3-benzoxazol-6-yl)-1,3-oxazolidin-5-yl]methyl}-2-({[3-(trifluoromethoxy)phenyl]methyl}amino)pyrimidine-5-carboxamide]: the IC50 at human ENPP2 came to 2.8 nM; in assay [1] it was 10 nM.
Consider `O=C(CN1CCN(c2cnc(NC3Cc4ccccc4C3)nc2)CC1)Nc1ccc2[nH]c(=O)oc2c1` [Compound 27, 2-(4-{2-[(2,3-dihydro-1H-inden-2-yl)amino]pyrimidin-5-yl}piperazin-1-yl)-N-(2-oxo-2,3-dihydro-1,3-benzoxazol-6-yl)acetamide], for which the IC50 on human ENPP2 (setting [2]) stood at 2.4 nM; in assay [1], 10 nM.
In the case of `O=C(CCN1CCc2[nH]nnc2C1)N1CCN(c2cnc(NC3Cc4ccccc4C3)nc2)CC1` [Compound 12, 1-(4-{2-[(2,3-dihydro-1H-inden-2-yl)amino]pyrimidin-5-yl}piperazin-1-yl)-3-{1H,4H,5H,6H,7H-[1,2,3]triazolo[4,5-c]pyridin-5-yl}propan-1-one], the IC50 on human ENPP2 (setting [2]) turned out to be 3.2 nM; in assay [1], 11 nM.
In the case of `O=C(CCN1CCc2[nH]nnc2C1)N1CCN(c2cnc(NCc3cccc(OC(F)(F)F)c3)nc2)CC1` [Compound 13, 3-{1H,4H,5H,6H,7H-[1,2,3]triazolo[4,5-c]pyridin-5-yl}-1-{4-[2-({[3(trifluoromethoxy)phenyl]methyl}amino)pyrimidin-5-yl]piperazin-1-yl}propan-1-one], the IC50 on human ENPP2 (setting [2]) was 3.7 nM; in assay [1] it was 13 nM.

One may read the IC50 as the concentration at which inhibition is half-maximal.
